In patent US12678412B2, “Substituted tolans for the modulation of microbial colonization” (BioMendics, LLC, priority 2017, dated 2026):
Like-named read-outs stand apart in the source and are kept apart here.

What was measured:
MRSA USA 400 biofilm = assay: Biofilm inhibition assay (prevention of biofilm formation); format: cell-based, Staphylococcus aureus; conditions: overnight 37° C.
Procedure: Proliferating cultures of Methicillin Resistant Staphylococcus aureus (MRSA, USA 400) were used in a colony forming assay. Frozen stock cultures of MRSA USA 400 were thawed and grown overnight in tryptic soy broth (TSB) with shaking at 37° C. The overnight culture (0.5-1.0 mL) was added to 100 mL TSB and grown at 37° C. with shaking and monitored for an optical density of 0.55-0.60 in order to obtain a final inoculum suspension of approximately 10^8 CFU/mL.
For the biofilm inhibition assay, 100 μL of MRSA USA 400 inoculum (10^8 CFU/mL) was plated with 100 μL of each BM3103 drug concentration in a 96 well plate. A 0.1 M stock of BM3103 was dissolved in ethanol and serially diluted in TSB across a 96 well plate to obtain final concentrations of 1 mM to 0.002 mM. The drug treated inoculum grew overnight at 37° C. without shaking.

S. typhimurium TA1535 = assay: Dose range finding colony forming assay, strain TA1535 without metabolic activation; format: cell-based
Procedure: (§1) A series of dose range finding assays were performed with five bacterial strains, S. typhimurium TA97a, TA98, TA100, TA1535, and E. coli WP2 uvrA pKM101, with and without metabolic activation at three plates per dose. The following doses, along with positive and negative controls, were tested: 5000, 2500, 1250, 500, 250, 125, 50, 20, 10, 5, 2, 1, and 0.2 μg/plate. The plates were evaluated for toxicity (a decrease in plate counts with increasing dose and/or a visible thinning of the background lawn) and for precipitation of the test article. Metabolic activation was included in some samples by adding phenobarbital/benzoflavone-induced rat liver S9 fractions with cofactors (S9 mix). Prior to use, freshly thawed aliquots of rat liver S9 were mixed with a sterile cofactor mix. The S9 mix contains a 10% liver S9 concentration and was refrigerated or stored on ice until used. When testing with metabolic activation, the S9 mix was used in the assay tube in place of phosphate buffer.
(§2) Dosing formulations were prepared to deliver all doses in a constant volume of 0.1 mL. The highest dose was prepared from test article weighed to the nearest 0.1 mg and the remaining formulations were prepared as serial dilutions from the high dose stock formulation. Using a permanent marking pen or computer printed labels, assay plates were labeled with the project and study numbers and the date. Assay plates and tubes were labeled with a unique identifier, which was used to match the assay tubes with the properly identified minimal glucose agar plate.
(§3) The pre-incubation method was used to perform the assay. The assay mix consisted of 0.1 mL of the test article formulation or control article, 0.5 mL S9 mix or phosphate buffer, and 0.1 mL of bacterial culture. Assay tubes were incubated at 37±1° C. with gentle agitation for 20±1 minutes, then 2.0-2.5 mL top agar was added to the assay mix and the top agar/assay mix poured onto appropriately labeled minimal glucose agar plates. Once the top agar hardened, the plates were inverted and incubated at 37±1° C. for 48±2 hours. Plates were counted with the Sorcerer (v. 2.2)/Ames Study Manager (v. 1.2.4) system from Perceptive Instruments (Suffolk, UK). With this system, plate counts are automatically transferred from the plate imager (Sorcerer) to a Study Manager spreadsheet, and the data are stored in a secure manner on an Oracle database. Some plates were hand counted, e.g., if sample precipitate interferes with automatic counting or toxicity results in the formation of microcolonies, in which case, counts for these plates were entered into the spreadsheet manually. Plates were scored also with the extent of colonization by a post fix code.

E. coli WP2 uvrA pKM101 = format: cell-based; conditions: without metabolic activation
Procedure: as §1, §2, §3

S. typhimurium TA97a = assay: Dose range finding colony forming assay, strain TA97a with metabolic activation; format: cell-based
Procedure: as §1, §2, §3

Question: How did the “Biofilm formation of MRSA USA 400” value (MRSA USA 400 biofilm; 0.008 mM, FIG. 12B) turn out when COc1ccc(C#Cc2ccc(O)cc2)cc1 [BM3103, 4-hydroxy-4′-methoxytolan] was run?
Answer: Mild biofilm formation

Question: And the “Biofilm formation of MRSA USA 400” value (MRSA USA 400 biofilm; 0.625 mM, FIG. 12A)?
Answer: inhibits biofilm formation of MRSA USA 400 completely

Question: What about the “Biofilm formation of MRSA USA 400” value (MRSA USA 400 biofilm; about 0.002 mM, FIGS. 12C-12D) of the same compound?
Answer: no effect on biofilm formation

Question: And the “Concentrations that completely inhibit biofilm formation” value (MRSA USA 400 biofilm)?
Answer: above 0.0625 mM

Question: What about the Colony forming units/plate (S. typhimurium TA1535; 0.2 μg/plate) of the same compound?
Answer: 12.0 colony forming units/plate

Question: What about the Individual colony counts (S. typhimurium TA1535; 0.2 μg/plate) of the same compound?
Answer: 12

Question: And the Colony forming units/plate (S. typhimurium TA1535; 1 μg/plate)?
Answer: 11.0 colony forming units/plate

Question: And the Individual colony counts (S. typhimurium TA1535; 1 μg/plate)?
Answer: 11

Question: What about the Colony forming units/plate (S. typhimurium TA1535; 2 μg/plate) of the same compound?
Answer: 10.0 colony forming units/plate

Question: And the Individual colony counts (S. typhimurium TA1535; 2 μg/plate)?
Answer: 10

Question: What about the Colony forming units/plate (S. typhimurium TA1535; 5 μg/plate) of the same compound?
Answer: 6.0 colony forming units/plate

Question: And the Individual colony counts (S. typhimurium TA1535; 5 μg/plate)?
Answer: 6

Question: What about the Colony forming units/plate (S. typhimurium TA1535; 10 μg/plate) of the same compound?
Answer: 0.0 colony forming units/plate

Question: What about the Individual colony counts (S. typhimurium TA1535; 10 μg/plate) of the same compound?
Answer: 0

Question: What about the “Plate postfix code (individual colony counts)” value (“Plate postfix code” below) (S. typhimurium TA1535; 10 μg/plate) of the same compound?
Answer: A T

Question: What about the Colony forming units/plate (S. typhimurium TA1535; 20 μg/plate) of the same compound?
Answer: 0.0 colony forming units/plate

Question: And the Individual colony counts (S. typhimurium TA1535; 20 μg/plate)?
Answer: 0

Question: And the Colony forming units/plate (S. typhimurium TA1535; 50 μg/plate)?
Answer: 0.0 colony forming units/plate

Question: And the Individual colony counts (S. typhimurium TA1535; 50 μg/plate)?
Answer: 0

Question: What about the Colony forming units/plate (S. typhimurium TA1535; 125 μg/plate) of the same compound?
Answer: 0.0 colony forming units/plate

Question: And the Individual colony counts (S. typhimurium TA1535; 125 μg/plate)?
Answer: 0

Question: What about the Colony forming units/plate (S. typhimurium TA1535; 250 μg/plate) of the same compound?
Answer: 0.0 colony forming units/plate

Question: And the Individual colony counts (S. typhimurium TA1535; 250 μg/plate)?
Answer: 0

Question: And the Colony forming units/plate (S. typhimurium TA1535; 500 μg/plate)?
Answer: 0.0 colony forming units/plate

Question: What about the Individual colony counts (S. typhimurium TA1535; 500 μg/plate) of the same compound?
Answer: 0

Question: And the Colony forming units/plate (S. typhimurium TA1535; 1250 μg/plate)?
Answer: 0.0 colony forming units/plate

Question: What about the Individual colony counts (S. typhimurium TA1535; 1250 μg/plate) of the same compound?
Answer: 0

Question: And the “Plate postfix code” value (S. typhimurium TA1535; 1250 μg/plate)?
Answer: A P

Question: And the Colony forming units/plate (S. typhimurium TA1535; 2500 μg/plate)?
Answer: 0.0 colony forming units/plate

Question: What about the Individual colony counts (S. typhimurium TA1535; 2500 μg/plate) of the same compound?
Answer: 0

Question: What about the “Plate postfix code” value (S. typhimurium TA1535; 2500 μg/plate) of the same compound?
Answer: A P

Question: What about the Colony forming units/plate (S. typhimurium TA1535; 5000 μg/plate) of the same compound?
Answer: 0.0 colony forming units/plate

Question: What about the Individual colony counts (S. typhimurium TA1535; 5000 μg/plate) of the same compound?
Answer: 0

Question: And the “Plate postfix code” value (S. typhimurium TA1535; 5000 μg/plate)?
Answer: A P

Question: And the Colony forming units/plate (E. coli WP2 uvrA pKM101; 20 μg/plate)?
Answer: 138.0 colony forming units/plate

Question: What about the Individual colony counts (E. coli WP2 uvrA pKM101; 20 μg/plate) of the same compound?
Answer: 138

Question: What about the Colony forming units/plate (E. coli WP2 uvrA pKM101; 50 μg/plate) of the same compound?
Answer: 14.0 colony forming units/plate

Question: What about the Individual colony counts (E. coli WP2 uvrA pKM101; 50 μg/plate) of the same compound?
Answer: 14

Question: What about the Colony forming units/plate (E. coli WP2 uvrA pKM101; 125 μg/plate) of the same compound?
Answer: 0.0 colony forming units/plate

Question: And the Individual colony counts (E. coli WP2 uvrA pKM101; 125 μg/plate)?
Answer: 0

Question: And the Colony forming units/plate (E. coli WP2 uvrA pKM101; 250 μg/plate)?
Answer: 0.0 colony forming units/plate

Question: What about the Individual colony counts (E. coli WP2 uvrA pKM101; 250 μg/plate) of the same compound?
Answer: 0

Question: What about the “Plate postfix code” value (E. coli WP2 uvrA pKM101; 250 μg/plate) of the same compound?
Answer: A P

Question: And the Colony forming units/plate (E. coli WP2 uvrA pKM101; 500 μg/plate)?
Answer: 0.0 colony forming units/plate

Question: And the Individual colony counts (E. coli WP2 uvrA pKM101; 500 μg/plate)?
Answer: 0

Question: What about the “Plate postfix code” value (E. coli WP2 uvrA pKM101; 500 μg/plate) of the same compound?
Answer: A P

Question: And the Colony forming units/plate (E. coli WP2 uvrA pKM101; 1250 μg/plate)?
Answer: 0.0 colony forming units/plate

Question: What about the Individual colony counts (E. coli WP2 uvrA pKM101; 1250 μg/plate) of the same compound?
Answer: 0

Question: What about the Colony forming units/plate (E. coli WP2 uvrA pKM101; 2500 μg/plate) of the same compound?
Answer: 0.0 colony forming units/plate

Question: What about the Individual colony counts (E. coli WP2 uvrA pKM101; 2500 μg/plate) of the same compound?
Answer: 0

Question: And the “Plate postfix code” value (E. coli WP2 uvrA pKM101; 2500 μg/plate)?
Answer: A P

Question: What about the Colony forming units/plate (E. coli WP2 uvrA pKM101; 5000 μg/plate) of the same compound?
Answer: 0.0 colony forming units/plate

Question: What about the Individual colony counts (E. coli WP2 uvrA pKM101; 5000 μg/plate) of the same compound?
Answer: 0

Question: And the “Plate postfix code” value (E. coli WP2 uvrA pKM101; 5000 μg/plate)?
Answer: A P

Question: And the Colony forming units/plate (S. typhimurium TA97a; 0.2 μg/plate)?
Answer: 89.0 colony forming units/plate

Question: What about the Individual colony counts (S. typhimurium TA97a; 0.2 μg/plate) of the same compound?
Answer: 89

Question: What about the Colony forming units/plate (S. typhimurium TA97a; 1 μg/plate) of the same compound?
Answer: 122.0 colony forming units/plate

Question: What about the Individual colony counts (S. typhimurium TA97a; 1 μg/plate) of the same compound?
Answer: 122

Question: What about the Colony forming units/plate (S. typhimurium TA97a; 2 μg/plate) of the same compound?
Answer: 78.0 colony forming units/plate

Question: And the Individual colony counts (S. typhimurium TA97a; 2 μg/plate)?
Answer: 78

Question: And the Colony forming units/plate (S. typhimurium TA97a; 5 μg/plate)?
Answer: 78.0 colony forming units/plate

Question: And the Individual colony counts (S. typhimurium TA97a; 5 μg/plate)?
Answer: 78

Question: And the Colony forming units/plate (S. typhimurium TA97a; 10 μg/plate)?
Answer: 77.0 colony forming units/plate

Question: What about the Individual colony counts (S. typhimurium TA97a; 10 μg/plate) of the same compound?
Answer: 77.0

Question: And the Colony forming units/plate (S. typhimurium TA97a; 20 μg/plate)?
Answer: 0.0 colony forming units/plate

Question: What about the Individual colony counts (S. typhimurium TA97a; 20 μg/plate) of the same compound?
Answer: 0

Question: What about the Colony forming units/plate (S. typhimurium TA97a; 50 μg/plate) of the same compound?
Answer: 0.0 colony forming units/plate

Question: What about the Individual colony counts (S. typhimurium TA97a; 50 μg/plate) of the same compound?
Answer: 0

Question: And the Colony forming units/plate (S. typhimurium TA97a; 125 μg/plate)?
Answer: 0.0 colony forming units/plate

Question: What about the Individual colony counts (S. typhimurium TA97a; 125 μg/plate) of the same compound?
Answer: 0

Question: What about the Colony forming units/plate (S. typhimurium TA97a; 250 μg/plate) of the same compound?
Answer: 0.0 colony forming units/plate

Question: What about the Individual colony counts (S. typhimurium TA97a; 250 μg/plate) of the same compound?
Answer: 0

Question: What about the Colony forming units/plate (S. typhimurium TA97a; 500 μg/plate) of the same compound?
Answer: 0.0 colony forming units/plate

Question: And the Individual colony counts (S. typhimurium TA97a; 500 μg/plate)?
Answer: 0

Question: What about the Colony forming units/plate (S. typhimurium TA97a; 1250 μg/plate) of the same compound?
Answer: 0.0 colony forming units/plate

Question: And the Individual colony counts (S. typhimurium TA97a; 1250 μg/plate)?
Answer: 0

Question: What about the “Plate postfix code” value (S. typhimurium TA97a; 1250 μg/plate) of the same compound?
Answer: A P

Question: And the Colony forming units/plate (S. typhimurium TA97a; 2500 μg/plate)?
Answer: 0.0 colony forming units/plate

Question: What about the Individual colony counts (S. typhimurium TA97a; 2500 μg/plate) of the same compound?
Answer: 0

Question: What about the Colony forming units/plate (S. typhimurium TA97a; 5000 μg/plate) of the same compound?
Answer: 0.0 colony forming units/plate

Question: What about the Individual colony counts (S. typhimurium TA97a; 5000 μg/plate) of the same compound?
Answer: 0
